Consider 1 molecule from ChEMBL document CHEMBL5154652, “Design, synthesis and anti-hepatocellular carcinoma activity of 3-arylisoquinoline alkaloids” (Eur J Med Chem, 2022).

pIC50: −log10 of the molar value. The source made the active and inactive calls. The calls are words filed in the database; no cut-off is given here. Bounds are passed on as bounds.

Data set [1] relates to HepG2. Description: Antiproliferative activity against human HepG2 cells after 72 hrs by MTT assay. It is filed as functional, cell-based. The settings on record: HepG2, 72 h. For orientation: Formazan colour is commonly taken as a measure of viable cells.
In data set [2] the test system is HCT-116. Description: Antiproliferative activity against human HCT-116 cells after 72 hrs by MTT assay. It is filed as functional, cell-based. The settings on record: HCT-116, 72 h.
For data set [3], the system named is SW480. Description: Antiproliferative activity against human SW480 cells after 72 hrs by MTT assay. It is filed as functional, cell-based. Particulars: SW480, 72 h.
Data set [4] deals with BGC-823. The data set can be described thus: Antiproliferative activity against human BGC-823 cells after 72 hrs by MTT assay. The settings on record: BGC-823, 72 h. The format is functional, cell-based.
The test system of data set [5] is A549. The data set can be described thus: Antiproliferative activity against human A549 cells after 72 hrs by MTT assay. The format is functional, cell-based. The settings on record: A549, 72 h.
Data set [6] deals with HL-60. Description: Antiproliferative activity against human HL-60 cells after 72 hrs by MTT assay. It is filed as functional, cell-based. The settings on record: HL-60, 72 h.
The subject of data set [7] is L02. Description: Antiproliferative activity against human L02 cells after 72 hrs by MTT assay. The format is functional, cell-based. Particulars: L02, 72 h.
For data set [8], the system named is DNA. Description: Binding affinity to DNA (unknown origin) assessed as DNA intercalation at 100 uM measured by unwinding assay relative to control. The format is nucleic-acid assay. The settings on record: Homo sapiens.
Data set [9] is described as follows: Genotoxicity in human HCCLM9 cells assessed as induction of DNA damage at 20 uM by comet assay. Particulars: hcclm9, 20 µM. It is filed as toxicity, cell-based.
Data set [10] relates to Huh-7. The data set can be described thus: Antiproliferative activity against human Huh-7 cells at 2 to 8 uM after 24 hrs by EdU incorporation assay. The format is functional, cell-based. The settings on record: dose 2-8 µM.
Data set [11] has as its system HCCLM9. Description: Antiproliferative activity against human HCCLM9 cells at 1.25 to 5 uM after 24 hrs by EdU incorporation assay. The format is functional, cell-based. Particulars: dose 1.25-5 µM.
In data set [12] the test system is HCCLM9. The data set can be described thus: Inhibition of cell migration in human HCCLM9 cells at 1.25 to 5 uM after 24 hrs by transwell assay. The format is functional, cell-based. Particulars: dose 1.25-5 µM.
The test system of data set [13] is Huh-7. Description: Inhibition of cell invasion in human Huh-7 cells at 2 to 8 uM after 24 hrs. Particulars: dose 2-8 µM. It is filed as functional, cell-based.
Data set [14] relates to HCCLM9. The data set can be described thus: Induction of cell cycle arrest in human HCCLM9 cells assessed as decrease in cell accumulation at S phase at 3.75 to 15 uM measured after 48 hrs by flow cytometry analysis. It is filed as functional, cell-based. Particulars: dose 3.75-15 µM. A general note: In flow cytometry, cells or beads pass a laser one at a time.
Data set [15] concerns Huh-7. Description: Induction of mitochondrial dysfunction in human Huh-7 cells assessed as decrease in MMP levels at 5 to 20 uM. The format is functional, cell-based. Particulars: dose 5-20 µM.
Data set [16] concerns HCCLM9. The data set can be described thus: Induction of mitochondrial dysfunction in human HCCLM9 cells assessed as decrease in MMP levels at 5 to 20 uM. It is filed as functional, cell-based. Particulars: dose 5-20 µM.
Data set [17] relates to Huh-7. The data set can be described thus: Induction of apoptosis in human Huh-7 cells assessed as increase in Bax expression at 5 to 20 uM. The format is functional, cell-based. The settings on record: dose 5-20 µM.
Data set [18] relates to Huh-7. The data set can be described thus: Induction of apoptosis in human Huh-7 cells assessed as increase in cytochrome C expression at 5 to 20 uM. It is filed as functional, cell-based. Particulars: dose 5-20 µM.
The subject of data set [19] is Huh-7. Description: Induction of mitochondrial apoptosis in human Huh-7 cells assessed as inhibition of p-Akt levels at 5 to 20 uM measured after 48 hrs by Western blot analysis. Particulars: dose 5-20 µM. It is filed as functional, cell-based.
Data set [20] relates to HCCLM9. The data set can be described thus: Induction of mitochondrial apoptosis in human HCCLM9 cells assessed as inhibition of p-PI3K levels at 3.75 to 15 uM measured after 48 hrs by Western blot analysis. The format is functional, cell-based. Particulars: dose 3.75-15 µM. (In western blotting, separated proteins are transferred to a membrane and probed.)
Data set [21] can be described thus: AUC (0 to t) in male Sprague-Dawley rat at 100 mg/kg, ip. The settings on record: in vivo. Further details: dose 100 mg/kg, route ip. The format is ADME, organism-based.
The subject of data set [22] is HCCLM9. The data set can be described thus: Antitumor activity against human HCCLM9 cells xenografted in male BALB/c nude mouse assessed as inhibition of tumor growth at 15 mg/kg, iv administered once a day for 21 days. It is filed as functional, organism-based. Particulars: time 21.0 day.
The nature of data set [23]: Toxicity in male BALB/c nude mouse xenografted with human HCCLM9 cells assessed as effect on body weight at 15 mg/kg, iv administered once a day for 21 days. It is filed as organism-based. Particulars: in vivo, 504 h, time 21 day.

Broadly, the pIC50 is the negative decadic logarithm of the IC50, by convention in mol/L. High values mean a small IC50, low ones a large IC50. The AUC(0-t) is exposure summed from dosing to a finite time, without extrapolation to infinity. A low value points to low exposure. With `CNCc1cc2c(cc1-c1cc3ccc4c(c3cn1)OCO4)OCO2`, the pIC50 in [1] was 4.28; in data set [2], 4.19; in [3] it was 5.04; in [4], 4.75; in data set [5], 4.44; in data set [6], 4.23. For the same molecule, in data set [7], the pIC50 was < 3.82. The outcome in data set [8], in data set [10], in data set [11], in data set [14], in data set [15] and in [16] was Active. The result in data set [17], in [18], in data set [19], in [20] and in [22] was Active. Further, the Activity result in data set [9] and in [23] was “Non-Toxic” in each case. Moreover, the inhibition result in data set [12] and in [13] was “Active” in each case. The area under the curve AUC(0-t) in data set [21] came out at 31600 ng·h/mL.
